This passage reports IC50 results from US20070249590A1, “Substituted indolo[2,3-a]pyrrolo[3,4-c]carbazole compounds useful in treating kinase disorders” (priority 2005, published 2007).

pIC50: −log10 of the molar value.

The test concerns the target T1, JAK3 (JH1 and JH2 domain) (Homo sapiens, UniProt P52333).
T1 sequence (P52333 521-1111 limits assumed): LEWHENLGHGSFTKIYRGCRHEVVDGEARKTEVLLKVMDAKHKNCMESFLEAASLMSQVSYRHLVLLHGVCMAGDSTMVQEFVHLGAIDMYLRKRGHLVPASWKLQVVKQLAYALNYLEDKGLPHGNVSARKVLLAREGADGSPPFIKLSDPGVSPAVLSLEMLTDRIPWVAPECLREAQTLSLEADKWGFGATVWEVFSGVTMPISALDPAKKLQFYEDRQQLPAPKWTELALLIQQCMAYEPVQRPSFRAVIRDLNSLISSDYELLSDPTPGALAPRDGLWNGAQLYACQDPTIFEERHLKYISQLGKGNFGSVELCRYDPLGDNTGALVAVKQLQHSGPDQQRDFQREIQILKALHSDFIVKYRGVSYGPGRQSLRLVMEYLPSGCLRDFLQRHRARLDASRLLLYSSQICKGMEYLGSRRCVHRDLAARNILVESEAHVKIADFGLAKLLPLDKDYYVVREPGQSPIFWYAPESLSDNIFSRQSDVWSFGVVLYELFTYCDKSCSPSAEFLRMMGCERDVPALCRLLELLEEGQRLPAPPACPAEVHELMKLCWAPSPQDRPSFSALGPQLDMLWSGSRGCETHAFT
As to the kind of experiment: JAK3 Kinase Assay (ELISA of peptide substrate phosphorylation). In kind it is biochemical. As to conditions: purified JAK3 enzyme, 10 μM ATP, biotinylated peptide substrate, 1 hour at room temperature. The method, boiled down:
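Sf21-baculovirus-expressed JAK3 (JH1+JH2), glutathione-bead purified, with biotinylated peptide substrate (in buffer containing 10 μM ATP) in HEPES pH 7.5/MgCl2/DTT, 1 h RT. Product was captured on Neutravidin, detected with HRP anti-phosphotyrosine (PY99)/TMB, OD 450/650 nm. Triplicate 16-point half-log series from 200 μM gave IC50; otherwise % inhibition at 1 μM.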
On the technique in general: An ELISA detects its analyte on a solid surface through an enzyme-linked reagent.
For orientation: pIC50 means the IC50 on a negative log10 scale, so that one unit is a factor of ten. On to `O=C1NCc2c1c1c3ccccc3n3c1c1c2c2ccccc2n1C[C@H](O)[C@@H](O)C3` [Cpd 18, 12,13-[(2S,3S)-dihydroxy-butan-1,4-yl]-6,7,12,13-tetrahydro-5-oxo-5H-indolo[2,3-a]pyrrolo[3,4-c]carbazole], for which the pIC50 was 7.49. Consider `O=C(NCc1ccc2c(c1)OCO2)OC1Cn2c3ccccc3c3c4c(c5c6ccccc6n(c5c32)CC1O)C(=O)NC4=O` (stereo not drawn) [Cpd 80, 12,13-{2-[(benzo[1,3]dioxol-5-yl-methyl)carbamoyloxy]-3-hydroxy-butan-1,4-yl}-12,13-dihydro-5,7-dioxo-6H-indolo[2,3-a]pyrrolo[3,4-c]carbazole], for which the pIC50 was 7.00.

With `O=C1NC(=O)c2c1c1c3ccccc3n3c1c1c2c2ccccc2n1CC(OC(=O)N1CCC(C2CCCCC2)CC1)CC3` (stereo not drawn) [Cpd 53, 12,13-{2-[(4-cyclohexyl-piperazin-1-yl)carbonyloxy]-butan-1,4-yl}-12,13-dihydro-5,7-dioxo-6H-indolo[2,3-a]pyrrolo[3,4-c]carbazole], the pIC50 is less than 6.40. In the case of `O=C1NC(=O)c2c1c1c3ccccc3n3c1c1c2c2ccccc2n1CC(O)(C(=O)N1CCC(O)CC1)C(O)C3` (stereo not drawn) [Cpd 132, 12,13-{2-[(4-hydroxy-piperidin-1-yl)carbonyl]-2,3-dihydroxy-butan-1,4-yl}-12,13-dihydro-5,7-dioxo-6H-indolo[2,3-a]pyrrolo[3,4-c]carbazole] it was 7.55; in that of `CC(C)(C)OC(=O)N1CCC(NC(=O)OCC2(O)Cn3c4ccccc4c4c5c(c6c7ccccc7n(c6c43)C2)C(=O)NC5)CC1` (stereo not drawn) [Cpd 177, 12,13-{2-hydroxy-2-[(1-t-butoxycarbonyl-piperidin-4-yl)carbamoyloxymethyl]-propan-1,3-yl}-6,7,12,13-tetrahydro-5-oxo-5H-indolo[2,3-a]pyrrolo[3,4-c]carbazole], 6.84; in that of `O=C1NCc2c1c1c3ccccc3n3c1c1c2c2ccccc2n1CC(COC(=O)N1CCC(N2CCCC2)CC1)C3` (stereo not drawn) [Cpd 162, 12,13-{2-[(4-pyrrolidin-1-yl-piperidin-1-yl)carbonyloxymethyl]-propan-1,3-yl}-6,7,12,13-tetrahydro-5-oxo-5H-indolo[2,3-a]pyrrolo[3,4-c]carbazole], 6.18. As for `COCCNC(=O)OC1CCn2c3ccccc3c3c4c(c5c6ccccc6n(c5c32)C1)C(=O)NC4=O` (stereo not drawn) [Cpd 41, 12,13-{2-[(2-methoxy-ethyl)carbamoyloxy]-butan-1,4-yl}-12,13-dihydro-5,7-dioxo-6H-indolo[2,3-a]pyrrolo[3,4-c]carbazole], the pIC50 was 8.10. The same measure for `CN1CCN(CCCNC(=O)OCC2(O)Cn3c4ccccc4c4c5c(c6c7ccccc7n(c6c43)C2)C(=O)NC5)CC1` (stereo not drawn) [Cpd 151, 12,13-(2-hydroxy-2-{[3-(4-methyl-piperazin-1-yl)prop-1-yl]carbamoyloxymethyl}-propan-1,3-yl)-6,7,12,13-tetrahydro-5-oxo-5H-indolo[2,3-a]pyrrolo[3,4-c]carbazole]: 7.64.

Take `CN(C)C1CCN(C(=O)C2(O)Cn3c4ccccc4c4c5c(c6c7ccccc7n(c6c43)CC2O)C(=O)NC5=O)C1` (stereo not drawn) [Cpd 119, 12,13-{2-[(3-dimethylamino-pyrrolidin-1-yl)carbonyl]-2,3-dihydroxy-butan-1,4-yl}-12,13-dihydro-5,7-dioxo-6H-indolo[2,3-a]pyrrolo[3,4-c]carbazole]: the pIC50 is 7.82.

`CN(C)CCN(C)C(=O)OC1Cn2c3ccccc3c3c4c(c5c6ccccc6n(c5c32)CC1O)C(=O)NC4=O` (stereo not drawn) [Cpd 107, 12,13-(2-{[N-methyl-N-(2-dimethylamino-ethyl)]carbamoyloxy}-3-hydroxy-butan-1,4-yl)-12,13-dihydro-5,7-dioxo-6H-indolo[2,3-a]pyrrolo[3,4-c]carbazole]: the pIC50 is 6.74. As to `O=C1NC(=O)c2c1c1c3ccccc3n3c1c1c2c2ccccc2n1CC(O)(C(=O)N1CCN(c2ccc(O)cc2)CC1)C(O)C3` (stereo not drawn) [Cpd 129, 12,13-(2-{[4-(4-hydroxy-phenyl)piperazin-1-yl]carbonyl}-2,3-dihydroxy-butan-1,4-yl)-12,13-dihydro-5,7-dioxo-6H-indolo[2,3-a]pyrrolo[3,4-c]carbazole], the pIC50 is 7.17. Take `Cc1ccc(CNC(=O)OCC2Cn3c4ccccc4c4c5c(c6c7ccccc7n(c6c43)C2)C(=O)NC5)o1` (stereo not drawn) [Cpd 156, 12,13-(2-{[(5-methyl-furan-2-yl)methyl]carbamoyloxymethyl}-propan-1,3-yl)-6,7,12,13-tetrahydro-5-oxo-5H-indolo[2,3-a]pyrrolo[3,4-c]carbazole]: the pIC50 was approximately 6.70. `O=C(NCCc1ccccn1)OC1Cn2c3ccccc3c3c4c(c5c6ccccc6n(c5c32)CC1O)C(=O)NC4=O` (stereo not drawn) [Cpd 82, 12,13-{2-[(2-pyridin-2-yl-ethyl)carbamoyloxy]-3-hydroxy-butan-1,4-yl}-12,13-dihydro-5,7-dioxo-6H-indolo[2,3-a]pyrrolo[3,4-c]carbozole]: the pIC50 is 6.87. Take `O=Cc1ccc2c(c1)c1c3c(c4c5cc(Br)ccc5n5c4c1n2CC(CO)C5)C(=O)NC3` (stereo not drawn) [Cpd 207, 3-bromo-9-formyl-12,13-(2-hydroxymethyl-propan-1,3-yl)-6,7,12,13-tetrahydro-5-oxo-5H-indolo[2,3-a]pyrrolo[3,4-c]carbazole]: the pIC50 was 7.89.

On to `O=C1NCc2c1c1c3ccccc3n3c1c1c2c2ccccc2n1CC(O)(COC(=O)N1CCC(N2CCCC2)CC1)C3` (stereo not drawn) [Cpd 150, 12,13-{2-hydroxy-2-[(4-pyrrolidin-1-yl-piperidin-1-yl)carbonyloxymethyl]-propan-1,3-yl}-6,7,12,13-tetrahydro-5-oxo-5H-indolo[2,3-a]pyrrolo[3,4-c]carbazole], for which the pIC50 is 7.35. In the case of `CN(C)CCCN1CCN(C(=O)C2(O)Cn3c4ccccc4c4c5c(c6c7ccccc7n(c6c43)CC2O)C(=O)NC5=O)CC1` (stereo not drawn) [Cpd 126, 12,13-(2-{[4-(3-dimethylamino-prop-1-yl)piperazin-1-yl]carbonyl}-2,3-dihydroxy-butan-1,4-yl)-12,13-dihydro-5,7-dioxo-6H-indolo[2,3-a]pyrrolo[3,4-c]carbazole], the pIC50 is 7.26.

As to `O=C(NC1CCN(Cc2ccccc2)CC1)OCC1(O)Cn2c3ccccc3c3c4c(c5c6ccccc6n(c5c32)C1)C(=O)NC4` (stereo not drawn) [Cpd 145, 12,13-{2-hydroxy-2-[(1-benzyl-piperidin-4-yl)carbamoyloxymethyl]-propan-1,3-yl}-6,7,12,13-tetrahydro-5-oxo-5H-indolo[2,3-a]pyrrolo[3,4-c]carbazole], the pIC50 was 7.51.

With `O=C1NCc2c1c1c3ccccc3n3c1c1c2c2ccccc2n1CC(COC(=O)N1CCN(CCO)CC1)C3` (stereo not drawn) [Cpd 164, 12,13-(2-{[4-(2-hydroxy-ethyl)piperazin-1-yl]carbonyloxymethyl}-propan-1,3-yl)-6,7,12,13-tetrahydro-5-oxo-5H-indolo[2,3-a]pyrrolo[3,4-c]carbazole], the pIC50 was 6.42. The same measure for `CN(C)CCCN1CCN(C(=O)OC2Cn3c4ccccc4c4c5c(c6c7ccccc7n(c6c43)CC2O)C(=O)NC5=O)CC1` (stereo not drawn) [Cpd 97, 12,13-(2-{[4-(3-dimethylamino-prop-1-yl)piperazin-1-yl]carbonyloxy}-3-hydroxy-butan-1,4-yl)-12,13-dihydro-5,7-dioxo-6H-indolo[2,3-a]pyrrolo[3,4-c]carbazole]: 6.76. Consider `O=C1NCc2c1c1c3cc(NC4=NCCN4)ccc3n3c1c1c2c2ccccc2n1CC(O)C(O)C3` (stereo not drawn) [Cpd 206], for which the pIC50 was 7.31. As for `O=C1NC(=O)c2c1c1c3ccccc3n3c1c1c2c2ccccc2n1CC(OC(=O)N1CCN(CCN2CCOCC2)CC1)C(O)C3` (stereo not drawn) [Cpd 94], the pIC50 is 6.29.
